Assay results as given in patent publication US20240351999A1, “PYRROLYLACYLPIPERIDYLAMINE COMPOUND AND USE THEREOF” (INSTITUTE OF MATERIA MEDICA ,CHINESE ACADEMY OF MEDICAL …, priority 2021, published 2024).
≈ marks a conversion by molar mass, not a printed value. Like-named read-outs stand apart in the source and are kept apart here.

Columns and labels:
[1] = tested on: Staphylococcus epidermidis ATCC 12228; test: In vitro antibacterial activity (MIC), microbroth dilution; type: cell-based; conditions: ATCC12228, 37° C., 18 h
[2] = tested on: Staphylococcus aureus ATCC 29213; test: as above; type: cell-based; conditions: ATCC29213, 37° C., 18 h
[3] = tested on: Clostridium difficile ATCC 9689; test: as above; type: cell-based
[4] = tested on: Staphylococcus aureus ATCC 29213; test: In vitro induced drug resistance, 20 generations at sub-MIC; type: cell-based; conditions: ATCC29213, read-out: MIC value after passage for 20 generations
Protocol: Test method: MIC values of a compound 1 and a control compound DS2969 against Staphylococcus aureus ATCC 29213 were determined by using a microbroth dilution method recommended by operating procedures for antibacterial susceptibility testing of the Clinical and Laboratory Standards Institute (CLSI).
After testing the MIC values, sub-MIC concentrations (1/2 MIC) of bacteria were diluted, and the concentration of the obtained bacterial solution was adjusted to 105 CFU/mL for a next round of MIC value testing. After 24 hours of incubation, bacterial suspensions were prepared by using bacterial suspensions at sub-MIC concentrations of drugs (1/2 MIC), and another MIC testing was performed. This process was repeated for 20 times, and the MIC value for each test was recorded.
The MIC values of the compound 1 and DS2969 inducing Staphylococcus aureus ATCC29213 for 20 generations were recorded, with the number of generations of bacteria induced as an abscissa and the MIC values as an ordinate (as shown in FIG. 1).

[5] = tested on: Staphylococcus aureus ATCC 43300 (MRSA); test: In vitro antibacterial activity (MIC), microbroth dilution; type: cell-based; conditions: 18 h, read-out: MIC Staphylococcus aureus ATCC 43300 (MRSA)
[6] = tested on: Escherichia coli ATCC 25922; test: as above; type: cell-based; conditions: read-out: MIC Escherichia coli ATCC 25922
[7] = tested on: Escherichia coli ATCC 35218; test: as above; type: cell-based; conditions: read-out: MIC Escherichia coli ATCC 35218
[8] = tested on: Staphylococcus epidermidis MRSE 15-1; test: as above; type: cell-based; conditions: 37° C., 18 h
[9] = Acute toxicity test in mice; type: in vivo
Description: (§1) Experimental animals: Beijing Vital River Laboratory Animal Technology Co., Ltd., ICR mice, with a uniform body weight of 20-22 g, and half male and half female.
In a tail vein administration group, there were 10 mice in each group, with half male and half female. In an intragastric administration group and an intraperitoneal administration group, there were four mice in each group, with half male and half female.

[10] = Pharmacokinetic test in mice; type: in vivo; conditions: both sexes, ICR, mouse, po, 150 mg/kg intragastric administration; for half-life: read-out: t½z (half-life period) (converted)
Protocol: as §1
Experimental scheme: a compound 1 was administered at a dose of 150 mg/kg (Solvents were as follows: saline:Tween 80:DMSO=9:0.5:0.5) by intragastric administration, and samples were taken by orbital blood sampling or a mode of sampling blood by enucleating eyeballs at 10 min, 20 min, 30 min, 1 h, 3 h, 5 h, 8 h, 24 h, 36 h, and 48 h after administration, plasma concentrations were determined by UPLC, a drug concentration-time curve was plotted, and key pharmacokinetic parameters were calculated.

[11] = tested on: Escherichia coli ECO+ 15-1; test: In vitro antibacterial activity (MIC), microbroth dilution; type: cell-based; conditions: 18 h, read-out: MIC Escherichia coli ECO+ 15-1
[12] = tested on: Pseudomonas aeruginosa ATCC 27853; test: as above; type: cell-based; conditions: read-out: MIC Pseudomonas aeruginosa ATCC 27853
[13] = tested on: Mycobacterium tuberculosis; test: Activity against Mycobacterium tuberculosis (MIC); type: cell-based; conditions: read-out: Inhibitory activity (MIC) against Mycobacterium tuberculosis
[14] = tested on: Enterococcus faecium EFM 19-1; test: In vitro antibacterial activity (MIC), microbroth dilution; type: cell-based; conditions: EFM191, 37° C., 18 h
[15] = tested on: Enterococcus faecalis ATCC 51575; test: as above; type: cell-based; conditions: ATCC51575, 37° C., 18 h
[16] = tested on: Klebsiella pneumoniae KPN-15-1; test: as above; type: cell-based; conditions: read-out: MIC Klebsiella pneumoniae KPN-15-1
[17] = tested on: Staphylococcus aureus ATCC 25923; test: as above; type: cell-based; conditions: ATCC25923, 37° C., 18 h
[18] = tested on: Acinetobacter baumannii ATCC 19606; test: as above; type: cell-based; conditions: read-out: MIC Acinetobacter baumannii ATCC 19606
[19] = tested on: Staphylococcus aureus (MRSA, ATCC 43300); test: Antibacterial activity in mice, sepsis model; type: in vivo, ICR mice; conditions: MRSA ATCC 43300 sepsis model
Protocol: as §1
Model: Sepsis model infected by Staphylococcus aureus (MRSA, ATCC 43300)
Modeling method: mice were infected with […] (diluted with a 5% sterile yeast solution) Staphylococcus aureus (MRSA, ATCC 43300) such that sepsis models of mice were formed (0.5 mL of a bacterial solution was injected intraperitoneally into each mouse).
Experimental scheme: a compound 1 and a positive drug were first dissolved in DMSO, and then diluted with other solvents, wherein a solvent ratio was saline:Tween 80:DMSO=9:0.5:0.5.

[20] = tested on: Staphylococcus aureus MRSA 15-1; test: In vitro antibacterial activity (MIC), microbroth dilution; type: cell-based; conditions: 37° C., 18 h
[21] = tested on: Escherichia coli ATCC25922; conditions: prior art value; cited from earlier work
[22] = Clostridioides difficile, ATCC9689; read-out: MIC Clostridium difficile ATCC 9689

Row | Structure (SMILES) | MIC [1] | MIC [2] | MIC ([6]; ATCC25922, 37° C., 18 h) | MIC ([7]; ATCC35218, 37° C., 18 h) | MIC [8] | MIC ([11]; 37° C.) | MIC ([12]; ATCC27853, 37° C., 18 h) | MIC [14] | MIC [15] | MIC ([16]; KPN151, 37° C., 18 h) | MIC [17] | MIC ([18]; ATCC19606, 37° C., 18 h) | MIC [20] | also measured
1 | CO[C@H]1CN(c2cnc(C(C)(C)O)cn2)CC[C@H]1NC(=O)c1[nH]c(C)c(Cl)c1Cl [Compound 4, 3,4-Dichloro-N-((3S,4R)-1-(5-(2-hydroxypropan-2-yl)pyrazin-2-yl)-3-methoxypiperidin-4-yl)-5-methyl-1H-pyrrole-2-carboxamide] | 0.5 µg/mL (≈ 1.13 µM) | 0.25 µg/mL (≈ 0.565 µM) |  |  |  |  |  |  |  |  |  |  |  | 
2 | CO[C@H]1CN(c2ccc(C(C)(C)O)nn2)CC[C@H]1NC(=O)c1[nH]c(C)c(Cl)c1Cl [Compound 1, 3,4-dichloro-N-{(3S,4R)-1-[6-(2-hydroxypropan-2-yl)pyridazin-3-yl]-3-methoxypiperidin-4-yl}-5-methyl-IH-pyrrole-2-carboxamide] | ≤ 0.03 µg/mL | 0.008 µg/mL (≈ 0.0181 µM) | 1 µg/mL (≈ 2.26 µM) | 1 µg/mL (≈ 2.26 µM) | ≤ 0.03 µg/mL | 8 µg/mL (≈ 18.1 µM) | 4 µg/mL (≈ 9.04 µM) | ≤ 0.03 µg/mL | ≤ 0.03 µg/mL | 8 µg/mL (≈ 18.1 µM) | ≤ 0.03 µg/mL | 8 µg/mL (≈ 18.1 µM) | ≤ 0.03 µg/mL | MIC [3, 22]: 0.25 µg/mL (≈ 0.565 µM); Activity against Clostridium difficile compared with controls ([3]; vs DS2969 and vancomycin): stronger than those of DS2969 and the positive control drug vancomycin; MIC [4]: < 1 µg/mL; MIC [5]: ≤ 0.03 µg/mL; Survival rate on day 14 ([9]; 95 mg/kg by a tail vein): 60%; Survival rate on day 14 ([9]; 200 mg/kg intraperitoneally): 100%; Survival rate on day 14 ([9]; 800 mg/kg by intragastric administration): 75%; bioavailability ([10]; in vivo, read-out: F (bioavailability)): 86%; half-life ([10]; in vivo): 9.2 h; AUC(0-inf) ([10]; plasma): 933 µg·h/mL; Cmax ([10]; plasma): 49400 ng/mL; Tmax ([10]; plasma): 1 h; AUC(0-t) ([10]; plasma, read-out: AUC (0-48)): 916 µg·h/mL; MRT last ([10]; plasma, read-out: MRT (0-48)): 16.1 h; MRT inf ([10]; plasma, read-out: MRT (0-∞)): 16.9 h; half-life ([10]; plasma): 9.21 h; MIC [13]: 0.593 µg/mL (≈ 1.34 µM); In vivo antibacterial activity (survival of mice) ([19]; 50 mg/kg, 1 h after modeling, observed 14 days): significant in vivo antibacterial activity and shows better antibacterial activity than DS2969; ED50 ([19]; Staphylococcus aureus, po, intragastric administration at lower dose): 5 mg/kg
3 | CO[C@H]1CN(c2ccc(C3(O)CCCC3)nn2)CC[C@H]1NC(=O)c1[nH]c(C)c(Cl)c1Cl [Compound 7, 3,4-Dichloro-N-((3S,4R)-1-(6-(1-hydroxycyclopentyl)pyridazin-3-yl)-3-methoxypiperidin-4-yl)-5-methyl-1H-pyrrole-2-carboxamide] | 0.125 µg/mL (≈ 0.267 µM) | ≤ 0.03 µg/mL | 8 µg/mL (≈ 17.1 µM) |  |  |  |  |  |  |  |  |  |  | 
4 | CN[C@H](CC(C)C)C(=O)N[C@H]1C(=O)N[C@@H](CC(N)=O)C(=O)N[C@H]2C(=O)N[C@H]3C(=O)N[C@H](C(=O)N[C@H](C(=O)O)c4cc(O)cc(O)c4-c4cc3ccc4O)[C@H](O)c3ccc(c(Cl)c3)Oc3cc2cc(c3O[C@@H]2O[C@H](CO)[C@@H](O)[C@H](O)[C@H]2O[C@H]2C[C@](C)(N)[C@H](O)[C@H](C)O2)Oc2ccc(cc2Cl)[C@H]1O [Vancomycin] |  |  |  |  |  |  |  |  |  |  |  |  |  | MIC ([3]; Clostridioides difficile, ATCC9689, read-out: MIC Clostridium difficile ATCC 9689): 2 µg/mL (≈ 1.38 µM); MIC ([6]; ATCC25922, 18 h): > 64 µg/mL; MIC ([7]; ATCC35218, 18 h): > 64 µg/mL; MIC [11]: > 64 µg/mL; MIC ([12]; ATCC27853, 18 h): > 64 µg/mL; MIC ([16]; KPN151, 18 h): > 64 µg/mL; MIC ([18]; ATCC19606, 18 h): > 64 µg/mL
5 | CO[C@H]1CN(c2nnc(C(C)(C)O)s2)CC[C@H]1NC(=O)c1[nH]c(C)c(Cl)c1Cl [Compound 2, 3,4-Dichloro-N-((3S,4R)-1-(5-(2-hydroxypropan-2-yl)-1,3,4-thiadiazol-2-yl)-3-methoxypiperidin-4-yl)-5-methyl-1H-pyrrole-2-carboxamide] | ≤ 0.03 µg/mL | 0.008 µg/mL (≈ 0.0178 µM) | 2 µg/mL (≈ 4.46 µM) | 1 µg/mL (≈ 2.23 µM) | ≤ 0.03 µg/mL | 16 µg/mL (≈ 35.7 µM) | 8 µg/mL (≈ 17.8 µM) | ≤ 0.03 µg/mL | ≤ 0.03 µg/mL | 16 µg/mL (≈ 35.7 µM) | ≤ 0.03 µg/mL | 16 µg/mL (≈ 35.7 µM) | ≤ 0.03 µg/mL | MIC [3, 22]: 0.25 µg/mL (≈ 0.558 µM); Activity against Clostridium difficile compared with controls ([3]; vs DS2969 and vancomycin): stronger than those of DS2969 and the positive control drug vancomycin; MIC ([5]; 37° C.): ≤ 0.03 µg/mL; MIC [13]: 0.595 µg/mL (≈ 1.33 µM)
6 | CO[C@H]1CN(c2ccc(C3(O)CCCCC3)nn2)CC[C@H]1NC(=O)c1[nH]c(C)c(Cl)c1Cl [Compound 8, 3,4-Dichloro-N-((3S,4R)-1-(6-(1-hydroxycyclohexyl)pyridazin-3-yl)-3-methoxypiperidin-4-yl)-5-methyl-1H-pyrrole-2-carboxamide] | ≤ 0.03 µg/mL | ≤ 0.03 µg/mL | 16 µg/mL (≈ 33.2 µM) |  |  |  |  |  |  |  |  |  |  | 
7 | CO[C@H]1CN(c2ncc(C(C)(C)O)s2)CC[C@H]1NC(=O)c1[nH]c(C)c(Cl)c1Cl [Compound 6, 3,4-Dichloro-N-((3S,4R)-1-(5-(2-hydroxypropan-2-yl)thiazol-2-yl)-3-methoxypiperidin-4-yl)-5-methyl-1H-pyrrole-2-carboxamide] | 0.25 µg/mL (≈ 0.559 µM) | 0.25 µg/mL (≈ 0.559 µM) |  |  |  |  |  |  |  |  |  |  |  | 
8 | COC[C@H](C)NC(=O)c1nc(N2CC[C@@H](NC(=O)c3[nH]c(C)c(Cl)c3Cl)[C@@H](OC)C2)sc1C(=O)O [AZD5099] |  | 0.03 µg/mL (≈ 0.0547 µM) | 32 µg/mL (≈ 58.3 µM) | 32 µg/mL (≈ 58.3 µM) |  | > 64 µg/mL | > 64 µg/mL |  |  | > 64 µg/mL |  | > 64 µg/mL |  | MIC Escherichia coli ATCC25922 (background) [21]: 32 µg/mL (≈ 58.3 µM)
9 | C[C@H]1COc2c(N3CCN(C)CC3)c(F)cc3c(=O)c(C(=O)O)cn1c23 [Levofloxacin, reference compound] | 0.125 µg/mL (≈ 0.346 µM) | 0.25 µg/mL (≈ 0.692 µM) | ≤ 0.06 µg/mL | ≤ 0.06 µg/mL | 4 µg/mL (≈ 11.1 µM) | 8 µg/mL (≈ 22.1 µM) | 2 µg/mL (≈ 5.53 µM) | 0.5 µg/mL (≈ 1.38 µM) | 0.5 µg/mL (≈ 1.38 µM) | 0.5 µg/mL (≈ 1.38 µM) | 0.25 µg/mL (≈ 0.692 µM) | 0.25 µg/mL (≈ 0.692 µM) | 16 µg/mL (≈ 44.3 µM) | MIC ([5]; 37° C.): 0.25 µg/mL (≈ 0.692 µM)
